The record followed here is patent US10806147B2, “Treatment method for a hydrocarbon-containing system using a biocide” (RHODIA OPERATIONS, priority 2011, dated 2020).

For the assay, the system named is sulphate-reducing prokaryotes (SRP). The procedure: The bioreactor used was constructed from titanium; this construction eliminated the risk of any production of iron sulphides through corrosion, which in turn would react with injected THPS. […] The column was packed with low-iron sand (Fisher, UK) with a glass fibre plug at the base to prevent the draining of sand during filling. The column fittings (injection and production pipework) were constructed from 316 stainless steel (Swagelok).
The column was maintained at 1000 psig (70 barg) and 24° C.±1° C. The pressure was held between the pump head and the proportional release valve. The use of 1-way valves in the injection head permitted disconnection and maintenance of the pump without depressurisation of the column.
The pump used was a high-pressure liquid chromatography pump (PerkinElmer Series 100). The pump was operated in a continuous fashion at an injection rate of 1 mL/min, injecting into the head of the bioreactor.
Injection fluid was prepared daily on workdays, with three days of fluid prepared on Friday to cover the weekend. During the week, a single pump was used on a continuous basis. Over the weekend, three pumps were used, cycling in three hour injection windows. The injection fluid was stored in a polyethylene terephthalate (PET) nitrogen-pressurised vessel at 2° C.±1° C.
The North Sea seawater used throughout the study was collected from Bridlington, Yorkshire on a quarterly basis. It was de-oxygenated through nitrogen sparging over a 48 hour period. Metabolisable carbon was added to the seawater in the form of volatile fatty acids (VFA) in the ratio of 100 acetate:10 propionate:1 butyrate by weight. Acetate and propionate were added as salt in order to avoid acidification of the injection fluid, whilst butyrate was added as the acid. The pH of the injection fluid was between 7.5 and 8 before the addition of THPS. The VFA totalled 111 mg/L, which, if converted entirely to sulphide (i.e. none used for biomass growth), should permit the production of 67 mg/L H2S.
The bioreactor was inoculated using a mixed consortia of prokaryotes obtained from North Sea seawater and North Sea oil reservoirs. Rawwater Engineering Company Limited (RECL) maintained a mixed consortia of sulphate-reducing prokaryotes (SRP) in bioreactors under the experimental conditions required for the project (24° C., 1000 psig). These bioreactors were used solely for inoculation purposes. Both bioreactors increased the chances of successfully inoculating new bioreactors, by limiting the changes in environmental conditions the microbes were subjected to and thus limiting stress. The column was inoculated with microbes, shut-in for a fortnight and operated under batch flow conditions (140 mL fluid per day in equally spaced thirty-minute injection windows) until SRP were known to be established through the production of hydrogen sulphide.
Effluent samples were collected on a daily basis onto zinc acetate. This reacted with the volatile hydrogen sulphide to form stable zinc sulphide precipitate, which permitted analysis at a later time. All samples were analysed within six hours of collection. The samples were analysed through the standard methylene blue colourimetric procedure, which was calibrated monthly against the iodometric sulphide method.
Three trials were conducted: • Trial 1—Starting with a dose of 30 mg/L THPS, the dose concentration of THPS was reduced in 10 mg/L steps until sulphide recovery was observed. […] This indicated the minimum starting concentration of THPS required to convert the SRP from normal activity to biostasis.

Like-named read-outs stand apart in the source and are kept apart here.

For the substance “Tetrakis(hydroxymethyl)phosphonium sulphate [THPS]”, where the note is “Trial 1, after 86 days total biocide injection, THPS removed entirely”, the “period of continued low hydrogen sulphide after removal of THPS, before gradual rise” value is 25 to 27 days. In addition, under “Trial 1, dose reduced to 10 mg/L, 14 days”, the “increase in sulphide during dosing” value was “no significant increase in sulphide was recorded”. The “biological activity and sulphide production on introduction of THPS” value (Trial 1, pre-soured bioreactor, 30 mg/L active THPS (60 mg/L Tolcide PS50A, incl. penetrant), continuous, 24 °C, 1000 psig) was “collapse in biological activity and sulphide production to sub-mg/L concentrations”. Further, the “biological activity and effluent sulphide on introduction of THPS” value (Trial 2, 30 mg/L THPS plus penetrant, continuous) was “immediate collapse of biological activity and effluent sulphide”. In addition, the “effluent sulphide during reduced dosing” value (Trial 2, 20 and 10 mg/L THPS, biocide injected 91 days in total) is “remained suppressed”. For the same substance, the “biostasis of the column” value (Trial 3, 5 mg/L THPS plus penetrant, slow inhibited increase in effluent sulphide) is “insufficient to keep the entire column under biostasis”. For the same substance, the effluent sulphide result (Trial 3, dose increased to 20 mg/L THPS) was “the effluent sulphide collapsed and remained low”; the effluent sulphide entry (Trial 3, dose increased via 10 mg/L to 15 mg/L THPS) is on record as “appeared to stabilise the effluent sulphide”. Also, the “growth of the SRP population” value (Trial 3, sour column, 5 mg/L THPS plus penetrant, continuous) is listed as “rapidly halted the growth of the SRP population”.
